# Earlier results as cited in patent US20140328945A1, “METHOD FOR STABILIZING AN ELECTROCHEMICALLY GENERATED SANITIZING SOLUTION HAVING A PREDETERMINED LEVEL OF FREE AVAILABLE CHLORINE AND pH” (Aquaxo, Inc., priority 2013, published 2014).
# Columns and labels:
# Escherichia coli = conditions: E. coli exposed to Hypochlorous Acid
# E. coli [1] = conditions: 2.6 ppm, dilute bacterial suspensions, in about 5 minutes
# E. coli [2] = tested on: E. coli
smiles,measurement,setting,value
OCl [Hypochlorous Acid],time to lose viability,Escherichia coli,less than 100 ms
same,growth inhibition,E. coli [1],100%
same,concentration required for 100% kill in 5 minutes,A. aerogenes,0.08 ppm
same,concentration required for 100% kill in 5 minutes,S. typhosa,0.06 ppm
same,concentration required for 100% kill in 5 minutes,S. clysvnteriae,0.05 ppm
same,concentration required for 100% kill in 5 minutes,E. coli [2],0.03 ppm
